Measured values as given in article PMC6017873 (Molecules : A Journal of Synthetic Chemistry and Natural …, 2018).

Experiments:
[1] = biological target: T1, SIRT1 (Homo sapiens, UniProt Q96EB6); design: method as in PMID 28475330; details: reference inhibitors, same experimental conditions; cited from earlier work
T1 sequence (Q96EB6 1-747): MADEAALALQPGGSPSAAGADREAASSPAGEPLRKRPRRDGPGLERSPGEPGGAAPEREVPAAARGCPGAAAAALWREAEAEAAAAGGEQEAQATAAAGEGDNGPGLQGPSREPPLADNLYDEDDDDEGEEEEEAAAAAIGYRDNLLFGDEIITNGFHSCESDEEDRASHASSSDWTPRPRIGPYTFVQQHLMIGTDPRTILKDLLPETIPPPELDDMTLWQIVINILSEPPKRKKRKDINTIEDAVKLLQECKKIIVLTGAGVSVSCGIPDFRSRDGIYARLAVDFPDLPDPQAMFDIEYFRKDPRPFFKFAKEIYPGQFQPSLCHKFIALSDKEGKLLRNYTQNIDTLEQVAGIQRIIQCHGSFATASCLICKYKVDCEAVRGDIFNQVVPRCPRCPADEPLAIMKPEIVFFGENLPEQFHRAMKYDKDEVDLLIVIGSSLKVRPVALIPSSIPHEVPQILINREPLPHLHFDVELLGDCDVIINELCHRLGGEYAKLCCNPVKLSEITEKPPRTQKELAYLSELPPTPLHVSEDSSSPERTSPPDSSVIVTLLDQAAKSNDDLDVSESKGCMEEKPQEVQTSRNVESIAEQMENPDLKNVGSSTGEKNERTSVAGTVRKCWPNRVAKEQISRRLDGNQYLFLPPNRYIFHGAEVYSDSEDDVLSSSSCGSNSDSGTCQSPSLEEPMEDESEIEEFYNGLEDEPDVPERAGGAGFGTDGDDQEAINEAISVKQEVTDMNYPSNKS

[2] = tested on: K-562 cells; test: Acetylation of histone H4 and α-tubulin by Western blot, K-562; type: cell-based, human; details: K-562, 5 or 50 µM
Description: Total proteins were extracted using the MPER® reagent (Thermo-scientific, […], Belgium) supplemented by 1× protease inhibitor cocktail (Complete EDTA-free, Roche, Prophac, Luxembourg, Luxembourg) according to manufacturer's instructions. Histones were extracted as previously described. Western blots were carried out as previously reported. Anti-acetylated α-tubulin (sc-23950) was from Santa Cruz Biotechnology (Tebubio, Boechout, Belgium); anti-acetylated histone H4 (06-866), anti-acetylated histone […] K-562 cells were treated with […] Acetylation of histone H4 (AcH4) and α-tubulin (Ac α- tubulin) was analyzed by Western Blot. β-actin and histone H1 were used as loading controls for the analysis of total and acid extracts, respectively. Blots are representative of three independent experiments. […]

[3] = biological target: T2, SIRT3 (Homo sapiens, UniProt Q9NTG7); design: method as in PMID 28475330; details: cited from earlier work
T2 sequence (Q9NTG7 1-399): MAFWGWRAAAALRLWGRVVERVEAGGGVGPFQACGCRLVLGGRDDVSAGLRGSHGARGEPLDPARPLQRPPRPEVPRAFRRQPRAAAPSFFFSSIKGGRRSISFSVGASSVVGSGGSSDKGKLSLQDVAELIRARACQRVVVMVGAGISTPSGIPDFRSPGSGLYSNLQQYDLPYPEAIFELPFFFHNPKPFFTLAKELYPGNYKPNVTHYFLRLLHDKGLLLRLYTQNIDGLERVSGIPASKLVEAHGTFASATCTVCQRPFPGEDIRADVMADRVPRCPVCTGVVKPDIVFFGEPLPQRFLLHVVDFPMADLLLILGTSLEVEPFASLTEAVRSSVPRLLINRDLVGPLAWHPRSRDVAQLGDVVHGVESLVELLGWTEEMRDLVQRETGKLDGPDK

[4] = reference inhibitors, same experimental conditions

Compound: N#C/C(=C\c1ccc(-c2cc(Cl)ccc2Cl)o1)C(=O)Nc1cccc2ncccc12 [AGK2]
- IC50 [1]: 98.1 ± 2.4 µM

Compound: Cc1ccc(C(=O)Nc2ccc(S(=O)(=O)O)c3cc(S(=O)(=O)O)cc(S(=O)(=O)O)c23)cc1NC(=O)c1cccc(NC(=O)Nc2cccc(C(=O)Nc3cc(C(=O)Nc4ccc(S(=O)(=O)O)c5cc(S(=O)(=O)O)cc(S(=O)(=O)O)c45)ccc3C)c2)c1 [Suramin, suramin]
- histone H4 or α-tubulin acetylation [2]: fails to induce histone H4 or α-tubulin acetylation
- histone H4 or α-tubulin acetylation ([2]; listed as suramin): failed to induce any increase in histone or α-tubulin acetylation
- remaining SIRT3 enzymatic activity compared to the control set to 100% ([3]; at 100 µM): 70%
- IC50 [3, 4]: > 100 µM
- IC50 SIRT3 [3, 4]: inactive
